Laboratory results reported in patent publication US9133220B2, “Boron-containing 5-arylidene-3,5-dihydro-4H-imidazol-4-ones” (Evrogen Joint Stock Company, priority 2012, dated 2015).
Several values for one entry are separate records, joined by “and”; a condition that tells them apart may be missing. Identical values can stand only once.

How the values were obtained:
[1] = Measuring spectral characteristics (absorption and emission maxima, extinction coefficients); format: physicochemical
Protocol: (§1) To measure spectral characteristics of some compounds with the formula I weighted portions of compounds p-NH2-BDI-BF2, p-dimethylamino-BDI-BF2, p-diethylamino-BDI-BF2, p-HOBDI-BF2, di-F-p-HOBDI-BF2, p-diethylamino-BDI-dimethylaminoethenyl-BF2 and p-HOBDI-dimethylaminoethenyl-BF2 were dissolved in water, ethanol and acetonitrile. Absorption spectra were measured on Varian Cary 100 Bio spectrophotometer, fluorescence spectra were measured on Varian Cary Eclipse scanning spectrofluorometer.
The values of absorption and emission maxima and molar extinction coefficients for examples of compounds with the formula I in the indicated solvents are listed in a Table 2. Emission peaks of the investigated compounds settle into a rather wide range from 485 nm for p-HOBDI-BF2 to 598 nm for p-diethylamino-BDI-dimethylamino-ethenyl-BF2.

[2] = Quantum yield of fluorescence; format: physicochemical
Protocol: as §1
The compounds p-NH2-BDI-BF2, p-HOBDI-BF2 (anionic form), di-Fp-HOBDI-BF2 (anionic form), p-diethylamino-BDI-dimethylaminoethenyl-BF2, p-HOBDI-dimethylaminoethenyl-BF2 (anionic form) have rather high quantum yields of fluorescence in water solutions.

[3] = system: cell membranes of HeLa Kyoto and HEK293 cell lines; assay: Staining of cell membranes and comparison of photostability with EGFP; format: cell-based, human
Protocol: Human cell cultures HeLa and HEK293 were grown in standart conditions and analyzed by wide field fluorescent and confocal laser scanning microscopy (excitation at 488 nm, detection at 500-540 nm).
The cell staining of the cells, temporarily expressing chimer protein EGFP-XRCC (nuclear localization), was carried out by p-diethylamino-BDI-BF2 in concentration 5 μM to compare fluorescent properties of the compound p-diethylamino-BDI-BF2 to the green fluorescent protein EGFP.

[4] = Measuring spectral characteristics (absorption and emission maxima, extinction coefficients); format: physicochemical; conditions: excitation at 488 nm, detection at 500-540 nm

CCN(CC)c1ccc(/C=C2\N=C(C)N(C)C2=O)c(B(F)F)c1 [p-diethylamino-BDI-BF2, (Z)-4-(4-(diethylamino)-2-(difluoroboryl)benzylidene)-1,2-dimethyl-1H-imidazole-5(4H)-one]
shift of emission and absorption spectra with change of more polar solvent (water) to less polar (ethanol, acetonitrile) [1]: hypsochromic shift | Abs. peak ([1]; acetonitrile): 493 nm | Emis. peak ([1]; acetonitrile): 553 nm | ext. coef. ([1]; acetonitrile): 54000 M⁻¹ cm⁻¹ | Abs. peak ([1]; ethanol): 506 nm | Emis. peak ([1]; ethanol): 558 nm | ext. coef. ([1]; ethanol): 59000 M⁻¹ cm⁻¹ | Abs. peak ([1]; water): 518 nm and 514 nm | Emis. peak ([1]; water): 562 nm | ext. coef. ([1]; water): 54000 M⁻¹ cm⁻¹ | Quantum yield of fluorescence ([2]; acetonitrile): 0.34 | Quantum yield of fluorescence ([2]; ethanol): 0.22 | Quantum yield of fluorescence ([2]; in organic solvents): 0.2-0.35 | Quantum yield of fluorescence ([2]; water): 0.05 | accumulation in cell membranes [3]: accumulated in cell membranes | fluorescence after addition to the cell medium ([3]; 1-5 μM, excitation 488 nm, detection 500-540 nm): bright yellow-green fluorescence was detected, associated with intracellular membrane structues and lipid drops | difference in the brightness of fluorescence in water and organic phases [4]: more than 10 times
